The results in this text go back to PubChem BioAssay AID330 (DTP/NCI, 2004).

Values joined by “and” are separate entries in the source; they are usually repeats but may differ in a detail not shown here. Equal entries are not always repeated. Inconclusive results and toxic doses are left out.

The experiment relates to P388 leukemia ip, CD2F1 mice, survival T/C. Briefly: NCI In Vivo Anticancer Drug Screen. Data for tumor model P388 Leukemia (intraperitoneal) in CD2F1 (CDF1) mice. Conditions: endpoint: median survival time, higher = longer survival. The gist of the method: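 Mice carrying the transplanted tumor received test compound or vehicle. Survival was recorded in each group, and the value is the treated-group measurement divided by that of the vehicle-treated control group.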

[1] abbreviates: dose: 50.0 mg/kg/injection, schedule: Q01DX009 (ip), vehicle: saline with Tween-80.
Setting [2] is: dose: 3.12 mg/kg/injection, schedule: Q01DX005 (ip), vehicle: saline.
The mark [3] stands for this setting: dose: 6.25 mg/kg/injection, schedule: Q01DX005 (ip), vehicle: saline.
Where [4] appears, read: dose: 12.5 mg/kg/injection, schedule: Q01DX005 (ip), vehicle: saline.
[5] abbreviates: dose: 100.0 mg/kg/injection, schedule: Q01DX009 (ip), vehicle: saline.
The mark [6] stands for this setting: dose: 50.0 mg/kg/injection, schedule: Q01DX005 (ip), vehicle: Klucel (hydroxypropylcellulose) (HPC).
The mark [7] stands for this setting: dose: 100.0 mg/kg/injection, schedule: Q01DX005 (ip), vehicle: Klucel (hydroxypropylcellulose) (HPC).
[8] abbreviates: dose: 200.0 mg/kg/injection, schedule: Q01DX005 (ip), vehicle: Klucel (hydroxypropylcellulose) (HPC).

Consider `Cc1cc(NC(=S)SCc2ccc(Cl)cc2)ccc1Br`, for which the T/C is 124 % of control (dose: 12.5 mg/kg/injection, schedule: Q01DX009 (ip), vehicle: saline with Tween-80); 119 % of control (dose: 25.0 mg/kg/injection, schedule: Q01DX009 (ip), vehicle: saline with Tween-80); 114 % of control and 124 % of control (dose: 50.0 mg/kg/injection, schedule: Q01DX009 (ip), vehicle: Klucel (hydroxypropylcellulose) (HPC)); 124 % of control under setting [1]; 108 % of control (dose: 50.0 mg/kg/injection, schedule: Q01DX009 (ip), vehicle: suspension in saline); 118 % of control and 120 % of control (dose: 100.0 mg/kg/injection, schedule: Q01DX009 (ip), vehicle: Klucel (hydroxypropylcellulose) (HPC)). Besides, the T/C is 101 % of control (dose: 100.0 mg/kg/injection, schedule: Q01DX009 (ip), vehicle: suspension in saline); 123 % of control (dose: 200.0 mg/kg/injection, schedule: Q01DX009 (ip), vehicle: Klucel (hydroxypropylcellulose) (HPC)); 113 % of control (dose: 200.0 mg/kg/injection, schedule: Q01DX009 (ip), vehicle: suspension in saline).
For `Cc1cc(/C=C2/OC(=O)c3ccccc32)cc(C(C)(C)C)c1O`, the T/C is, setting by setting: (dose: 100.0 mg/kg/injection, schedule: Q04DX002 (ip), vehicle: saline) 101 % of control; (dose: 200.0 mg/kg/injection, schedule: Q04DX002 (ip), vehicle: saline) 99 % of control; (dose: 400.0 mg/kg/injection, schedule: Q04DX002 (ip), vehicle: saline) 101 % of control.
Take `O=c1oc2ccc(Br)cc2cc1-n1nnc2ccccc21`: the T/C is 88 % of control (dose: 15.0 mg/kg/injection, schedule: Q01DX005 (ip), vehicle: saline with Tween-80); 93 % of control (dose: 30.0 mg/kg/injection, schedule: Q01DX005 (ip), vehicle: saline with Tween-80); 88 % of control and 90 % of control (dose: 60.0 mg/kg/injection, schedule: Q01DX005 (ip), vehicle: saline with Tween-80); 86 % of control and 97 % of control (dose: 120.0 mg/kg/injection, schedule: Q01DX005 (ip), vehicle: saline with Tween-80); 97 % of control (dose: 240.0 mg/kg/injection, schedule: Q01DX005 (ip), vehicle: saline with Tween-80).
Turning to `Cn1c(CCCC(=O)O)nc2cc(N(CCCl)CCCl)ccc21`, the T/C is 154 % of control (dose: 5.0 mg/kg/injection, schedule: Q01DX009 (ip), vehicle: saline sonified); 150 % of control (dose: 9.9 mg/kg/injection, schedule: Q04DX003 (ip), vehicle: saline with Tween-80); 168 % of control (dose: 10.0 mg/kg/injection, schedule: Q01DX009 (ip), vehicle: saline sonified); 163 % of control (dose: 22.5 mg/kg/injection, schedule: Q04DX003 (ip), vehicle: saline with Tween-80).
Consider `CC12CCC(O)C=C1CCC1C2CCC2(C)C(C3=CC(=O)OC3)CCC12O` (centres undefined), for which the T/C by setting is: (dose: 3.1 micrograms/kg/injection, schedule: Q01DX009 (ip), vehicle: saline with Tween-80) 101 % of control; (dose: 6.2 micrograms/kg/injection, schedule: Q01DX009 (ip), vehicle: saline with Tween-80) 100 % of control; (dose: 12.5 micrograms/kg/injection, schedule: Q01DX009 (ip), vehicle: saline with Tween-80) 96 % of control; (dose: 25.0 micrograms/kg/injection, schedule: Q01DX009 (ip), vehicle: saline with Tween-80) 102 % of control.
For the compound `Cc1ccc2c(c1)c(N=NC(N)=S)c(O)n2C1OC(CO)C(O)C(O)C1O` (centres undefined), the T/C is, setting by setting: (dose: 32.0 mg/kg/injection, schedule: Q01DX009 (ip), vehicle: saline with Tween-80) 102 % of control; (dose: 64.0 mg/kg/injection, schedule: Q01DX009 (ip), vehicle: saline with Tween-80) 95 % of control; (dose: 128.0 mg/kg/injection, schedule: Q01DX009 (ip), vehicle: saline with Tween-80) 98 % of control.
As for `Cc1c2ccncc2c(CNC(=O)CCCC(=O)NCc2c3cnccc3c(C)c3c2c2ccccc2n3C)c2c3ccccc3n(C)c12`, the T/C was 104 % of control (dose: 6.25 mg/kg/injection, schedule: Q04DX002 (ip), vehicle: saline with Tween-80); 104 % of control (dose: 12.5 mg/kg/injection, schedule: Q04DX002 (ip), vehicle: saline with Tween-80); 102 % of control (dose: 25.0 mg/kg/injection, schedule: Q04DX002 (ip), vehicle: saline with Tween-80); 104 % of control (dose: 50.0 mg/kg/injection, schedule: Q04DX002 (ip), vehicle: saline with Tween-80).
As for `COc1ccc2nc(-n3[nH]c(C)c(-c4cc(C)nn4-c4ccccc4)c3=O)cc(C)c2c1`, the T/C (dose: 100.0 mg/kg/injection, schedule: Q01DX001 (ip), vehicle: saline with Tween-80) is 98 % of control and the T/C (dose: 200.0 mg/kg/injection, schedule: Q01DX001 (ip), vehicle: saline with Tween-80) is 91 % of control.
On to `COc1cc(OC)c(C2c3cc4c(cc3OC(C)(O)C2C)OCO4)c(OC)c1` (centres undefined), for which the T/C was 94 % of control (dose: 100.0 mg/kg/injection, schedule: Q04DX002 (ip), vehicle: saline with Tween-80); 89 % of control (dose: 200.0 mg/kg/injection, schedule: Q04DX002 (ip), vehicle: saline with Tween-80); 102 % of control (dose: 400.0 mg/kg/injection, schedule: Q04DX002 (ip), vehicle: saline with Tween-80).
Take `CCN(CCCNc1cc(OC)cc2cccnc12)C(C)C`: the T/C was 98 % of control under setting [2], 92 % of control under setting [3] and 107 % of control under setting [4].
As to `O=C(N1CCC(CCCC2CCN(C(=O)C(F)(F)C(F)(F)C(F)(F)C(F)(F)C(F)(F)C(F)(F)C(F)(F)F)CC2)CC1)C(F)(F)C(F)(F)C(F)(F)C(F)(F)C(F)(F)C(F)(F)C(F)(F)F`, the T/C was 98 % of control (dose: 50.0 mg/kg/injection, schedule: Q01DX009 (ip), vehicle: saline); 96 % of control under setting [5]; 95 % of control (dose: 200.0 mg/kg/injection, schedule: Q01DX009 (ip), vehicle: saline).
As for `Oc1ccccc1C=Nc1ccccc1N=Cc1ccccc1O.[Cu]`, the T/C was 99 % of control under setting [6], 97 % of control under setting [7] and 90 % of control under setting [8].
In the same order, the values of `CCCc1c(Cl)[nH]c(=O)n(C)c1=O` are 111 % of control, 111 % of control and 97 % of control.
In the case of `CN(C)c1ccc(N)c(N)c1`, the T/C by setting is: under setting [2], 99 % of control; under setting [3], 99 % of control; under setting [4], 103 % of control; (dose: 25.0 mg/kg/injection, schedule: Q01DX005 (ip), vehicle: saline) 105 % of control and 106 % of control; under setting [5], 98 % of control.
For the compound `CCOC(=O)C1=C(C(C)=O)C(c2cccc([N+](=O)[O-])c2)C(C(C)=O)=C(C(=O)OCC)N1`, the T/C was 98 % of control (dose: 60.0 mg/kg/injection, schedule: Q01DX005 (ip), vehicle: Klucel (hydroxypropylcellulose) (HPC)); 88 % of control (dose: 120.0 mg/kg/injection, schedule: Q01DX005 (ip), vehicle: Klucel (hydroxypropylcellulose) (HPC)); 95 % of control (dose: 240.0 mg/kg/injection, schedule: Q01DX005 (ip), vehicle: Klucel (hydroxypropylcellulose) (HPC)).
Consider `COC(=O)c1ccc(O)c([N+](=O)[O-])c1`, for which the T/C by setting is: (dose: 50.0 mg/kg/injection, schedule: Q04DX003 (ip), vehicle: saline with Tween-80) 100 % of control; (dose: 100.0 mg/kg/injection, schedule: Q04DX003 (ip), vehicle: saline with Tween-80) 109 % of control; (dose: 200.0 mg/kg/injection, schedule: Q04DX003 (ip), vehicle: saline with Tween-80) 100 % of control.
Take `Cc1nc(NC(=O)C(C)(C)C)sc1[N+](=O)[O-]`: the T/C by setting is: under setting [1], 101 % of control; (dose: 100.0 mg/kg/injection, schedule: Q01DX009 (ip), vehicle: saline with Tween-80) 92 % of control; (dose: 200.0 mg/kg/injection, schedule: Q01DX009 (ip), vehicle: saline with Tween-80) 94 % of control.
For `O=c1sc(N=Nc2ccccc2)nn1-c1ccccc1`, the T/C reads like this: (dose: 50.0 mg/kg/injection, schedule: Q04DX003 (ip), vehicle: other) 90 % of control; (dose: 100.0 mg/kg/injection, schedule: Q04DX003 (ip), vehicle: other) 95 % of control; (dose: 200.0 mg/kg/injection, schedule: Q04DX003 (ip), vehicle: other) 95 % of control.
With `O=P1(N2CCOCC2)OC(c2ccccc2)=CCN1c1ccccc1` (centres undefined), the T/C reads like this: under setting [6], 103 % of control; under setting [7], 103 % of control; under setting [8], 104 % of control.
